Earlier results in patent US4716040A, “Controlled absorption methyldopa pharmaceutical formulation” (Elan Corporation P.L.C., priority 1983, dated 1987).

Columns and labels:
[1] = system: decarboxylation of dopa to dopamine

unchanged methyldopa in urine (of the methyldopa eliminated in the urine): about 25%
fraction of oral dose absorbed (oral): about one half
metabolites in urine (remainder of the methyldopa eliminated in the urine): mainly a mono-O-sulphate of methyldopa
oedema (hypertension; methyldopa therapy): sometimes observed
Structure (SMILES): C[C@](N)(Cc1ccc(O)c(O)c1)C(=O)O [methyldopa, 3-hydroxy-α-methyl-L-tyrosine]
effect on standing and supine blood pressure (hypertension; moderate to severe hypertension): reducing the standing blood pressure and also reduces the supine blood pressure
maximum hypotensive effect may not occur until (hypertension; oral): second day of treatment
onset of effects after oral administration (hypertension; oral): about 2 hours
some effect still usually apparent after a dose (hypertension; oral): 24 h
decarboxylation of dopa to dopamine [1]: inhibits
